Results as given in patent US10576102B2, “KOC1-derived peptide and vaccine including same” (ONCOTHERAPY SCIENCE, INC., priority 2014, dated 2020).
Entries after “also recorded” stand apart in the source; their conditions may differ.

Tests used:
Type in all cases: cell-based, human
peptide-pulsed C1R-A11 [1] = experiment: In vitro CTL induction, IFN-gamma ELISPOT assay (HLA-A*1101); settings: CTLs induced with peptide-pulsed DCs from HLA-A*1101-positive volunteers, day 21, vs peptide-pulsed C1R-A11, compared with unpulsed control
Method: (§1) C1R (C1R-A11) that stably expresses HLA-A*1101 was used as a stimulator cell. A cDNA encoding the open-reading frame of HLA-A*1101 was amplified by PCR and cloned into an expression vector. C1R cells were transfected with the expression vector, and then selected using G418 (Invitrogen) for two weeks. The G418-selected cells were seeded into wells containing G418-added culture medium in a 96-well plate, and further cultured for 30 days. The exogenous HLA-A*1101 expression in C1R cells was verified by flow cytometric analysis.
(§2) Monocyte-derived dendritic cells (DCs) were used as the antigen-presenting cell to induce a cytotoxic T lymphocyte (CTL) response against peptides presented on human leukocyte antigens (HLAs). As described in the other sections, DCs were generated in vitro (Nakahara S et al., Cancer Res 2003, 63(14): 4112-8). Specifically, peripheral-blood mononuclear cells isolated from healthy volunteers (HLA-A*1101-positive) with the Ficoll-Paque plus solution (Pharmacia) were separated by attaching to plastic tissue culture dishes (Becton Dickinson) and concentrated as a monocyte fraction. The monocyte-concentrated population was cultured in the presence of 1000 IU/ml granulocyte macrophage colony-stimulating factor (R&D System) and 1000 IU/ml interleukin(IL)-4 (R&D System) in an AIM-V medium (Invitrogen) containing 2% heat-inactivated autologous serum (AS). After seven days of culturing, the cytokine-induced DCs were pulsed with 20 micro-g/ml each of the synthesized peptides in an AIM-V medium at 37 degrees C. for three hours in the presence of 3 micro-g/ml beta 2-microglobulin. The generated cells appeared to express on their cell surface DC-associated molecules such as CD80, CD83, CD86 and HLA class II (data not shown). Next, these peptide-pulsed DCs were inactivated, by X-ray irradiation (20 Gy), and mixed in a 1:20 ratio with autologous CD8^+ T cells obtained by positive selection using the CD8 Positive Isolation Kit (Dynal). These culture products were seeded in a 48-well plate (Corning). Each well was made to contain 1.5×10^4 peptide-pulsed DCs, 3×10^5 CD8^+ T cells and 10 ng/ml IL-7 (R&D System) in 0.5 ml of the AIM-V/2% AS medium. Three days later, these culture products were added with a final concentration of 20 IU/ml IL-2 (CHIRON). On day 7 and day 14, T cells were further stimulated with peptide-pulsed autologous DCs. The DCs were prepared every time by the same method as above. On day 21, after the third peptide stimulation, CTLs were examined against the peptide-pulsed C1R-A11 by a human interferon (IFN)-gamma enzyme-linked immunospot (ELISPOT) assay (Tanaka H et al., Br J Cancer 2001, 84(1): 94-9; Umano Y et al., Br J Cancer 2001, 84(8): 1052-7; Uchida N et al., Clin Cancer Res 2004, 10(24): 8577-86; Suda T et al., Cancer Sci 2006, 97(5): 411-9; Watanabe T et al., Cancer Sci 2005, 96(8): 498-506).
(§3) Specifically, peptide-pulsed C1R-A11 (1×10^4 cells/well) was prepared as the stimulator cell. The induced CTLs, i.e., CTL lines and CTL clones, were used as the responder cell. The IFN-gamma ELISPOT assay and IFN-gamma ELISA were performed according to the manufacturer's manual.

peptide-pulsed C1R-A03 = experiment: In vitro CTL induction, IFN-gamma ELISPOT assay (HLA-A*0301); settings: CTLs induced with peptide-pulsed DCs from HLA-A*0301-positive volunteers; day 21; vs peptide-pulsed C1R-A03, compared with unpulsed control; listed as KOC1-A03-10-414
Method: as §1, with “(C1R-A03)” for “(C1R-A11)”, “HLA-A*0301” for “HLA-A*1101”
as §2, with “(HLA-A*0301-positive)” for “(HLA-A*1101-positive)”, “inactivated” for “inactivated,”, “On day 21, after the third peptide stimulation, CTLs were examined against the peptide-pulsed C1R-A11 by a human interferon (IFN)-gamma enzyme-linked immunospot (ELISPOT) assay (Tanaka H et al., Br J Cancer 2001, 84(1): 94-9; Umano Y et al., Br J Cancer 2001, 84(8): 1052-7; Uchida N et al., Clin Cancer Res 2004, 10(24): 8577-86; Suda T et al., Cancer Sci 2006, 97(5): 411-9; Watanabe T et al., Cancer Sci 2005, 96(8): 498-506).” left out

peptide-pulsed C1R-A11 [2] = experiment: IFN-gamma ELISA of CTL lines and CTL clones (HLA-A*1101)
Method: CTLs were propagated in culture using methods similar to those disclosed by Riddell et al. (Walter E A et al., N Engl J Med 1995, 333(16): 1038-44; Riddell S R et al., Nat Med 1996, 2(2): 216-23). The CTLs were co-cultured in a total of 25 ml AIM-V medium containing 5% AS (AIM-V/5% AS) and 40 ng/ml anti-CD3 antibody with two types of Mitomycin C-treated human B lymphoblastoid cell lines at 5×10^6 cells/flask. One day after beginning of the culturing, 120 IU/ml IL-2 was added to the culture. On days 5, 8 and 11, a fresh AIM-V/5% AS medium containing 30 IU/ml IL-2 was added to the culture (Tanaka H et al., Br J Cancer 2001, 84(1): 94-9; Umano Y et al., Br J Cancer 2001, 84(8): 1052-7; Uchida N et al., Clin Cancer Res 2004, 10(24): 8577-86; Suda T et al., Cancer Sci 2006, 97(5): 411-9; Watanabe T et al., Cancer Sci 2005, 96(8): 498-506).
Dilution of CTLs was carried out to make 0.3, 1 and 3 cells/well in 96 round-bottomed microtiter plates (Nalge Nunc International). The CTLs were co-cultured with two types of Mitomycin C-treated human B lymphoblastoid cell lines at 1×10^4 cells/well in a total of 150 micro-1/well AIM-V/5% AS medium with 30 ng/ml anti-CD3 antibody and 125 IU/ml IL-2. Ten days later, IL-2 was added to the medium at 50 micro-1/well to reach a final concentration of 125 IU/ml. On day 14, the CTL activity was tested, and the CTL clones were propagated using the same method as described above (Uchida N et al., Clin Cancer Res 2004, 10(24): 8577-86; Suda T et al., Cancer Sci 2006, 97(5): 411-9; Watanabe T et al., Cancer Sci 2005, 96(8): 498-506).
as §3

| Sequence | peptide-specific CTL activity (IFN-gamma production), ELISPOT (peptide-pulsed C1R-A11 [1]) | peptide-specific CTL activity (IFN-gamma production), ELISPOT (peptide-pulsed C1R-A03) | peptide-specific CTL activity (IFN-gamma production), ELISPOT (peptide-pulsed C1R-A11 [1]; listed as KOC1-A11-9-258) | IFN-gamma production of CTL clones, ELISA (peptide-pulsed C1R-A11 [2]; CTL clones by limiting dilution, peptide-pulsed C1R-A11, listed as KOC1-A11-9-415) | IFN-gamma production of CTL lines, ELISA (peptide-pulsed C1R-A11 [2]; CTL lines, target cells pulsed with the peptide vs not pulsed, C1R-A11) |
| --- | --- | --- | --- | --- | --- |
| ALSVGAIIGK (a peptide derived from KOC1) [SEQ ID NO: 28] | potent IFN-gamma production | no specific IFN-gamma production; also recorded: specific IFN-gamma production was not observed |  |  |  |
| KSILEIMHK (a peptide derived from KOC1) [SEQ ID NO: 1] |  |  | no specific IFN-gamma production; also recorded: specific IFN-gamma production was not observed |  |  |
| LSVGAIIGK (a peptide derived from KOC1) [SEQ ID NO: 5] | potent IFN-gamma production |  |  | Potent IFN-gamma production | potent IFN-gamma production |
